Results on 28 compounds are retold here after US20210292340A1, “CELL NECROSIS INHIBITOR, PREPARATION METHOD THEREFOR AND USE THEREOF” (SHANGHAI INSTITUTE OF ORGANIC CHEMISTRY, CHINESE ACADEMY OF …, priority 2018, published 2021).

For the test, the system named is Jurkat (FADD−/−) cells. As to the kind of experiment: Inhibition of TNF-induced programmed Jurkat (FADD−/−) cell necrosis (Cell Titer-Glo). It is filed as cell-based, human. The settings on record: Homo sapiens, Jurkat, 20 h, TNF 10 ng/mL, intracellular ATP level, read-out: Cellular IC50 (M) Jurkat (FADD−/−). As to the method: Two replicate wells were set for each concentration of each compound.
Jurkat (FADD^−/−) cells (human-derived peripheral blood leukemia T cell line, with FADD gene knocked out) were cultured in vitro. After growing to logarithmic growth phase, the cells were harvested, and centrifuged at 1000 rpm for 5 min. The supernatant was discarded, and the cells were resuspended in fresh medium and adjusted to a cell density of 5×10^5/mL. The cell suspension was added to the culture plate containing the drug (40 μL per well). In the treatment groups, 10 μL of TNF (tumor necrosis factor, final concentration 10 ng/mL) diluted with the cell culture medium was added to each well, and incubated for 20 h in a cell incubator (37° C., 5% CO2). Subsequently, 50 μL of Cell Titer-Glo solution was added to each well and incubated at room temperature for 10 min. Then, the luminescence was detected on BioTek plate reader to measure the intracellular ATP level. The effect of the test compounds in inhibiting TNF-induced cell necrosis was calculated from the full-activity well and background well (with the untreated DMSO control well as 100% cell viability), and the half inhibitory concentration (IC50) of the compound was calculated by Graphpad Prism statistical software.
(In general: Cellular ATP, detected with luciferase, serves as a proxy for viable cell number.)
Take `CN1C(=O)[C@@H](NC(=O)c2n[nH]c(Cc3ccccc3)n2)COc2ccccc21` [GSK2982772, reference compound]: the IC50 was 9.7e-10 M.

On to `CN1C(=O)[C@@H](NC(=O)c2n[nH]c(Cc3ccccc3)n2)CSc2cc3[nH]ccc3cc21` [RIP1-001], for which the IC50 worked out at 1.38e-09 M.

`CN1C(=O)[C@@H](NC(=O)c2cc(Cc3ccccc3)on2)CSc2cc3[nH]ccc3cc21` [RIP1-003]: the IC50 is 6.91e-10 M.

For `CN1C(=O)[C@@H](NC(=O)c2cnn(Cc3ccccc3)c2)CSc2cc3[nH]ccc3cc21` [RIP1-004], the IC50 worked out at 5.63e-08 M.

Turning to `CN1C(=O)[C@@H](NC(=O)c2cncn2Cc2ccccc2)CSc2cc3[nH]ccc3cc21` [RIP1-005], the IC50 is above 2e-06 M.

As for `CN1C(=O)[C@@H](NC(=O)c2cn(Cc3ccccc3)cn2)CSc2cc3[nH]ccc3cc21` [RIP1-006], the IC50 was determined as 1.25e-09 M.

On to `CN1C(=O)[C@@H](NC(=O)c2cccc(Cc3ccccc3)c2)CSc2cc3[nH]ccc3cc21` [RIP1-007], for which the IC50 worked out at 3.4e-07 M.

Consider `CN1C(=O)[C@@H](NC(=O)c2ncn(Cc3ccccc3)n2)CSc2cc3[nH]ccc3cc21` [RIP1-008], for which the IC50 was 2.4e-10 M.

Consider `CN1C(=O)[C@@H](NC(=O)c2cc(Cc3ccccc3)on2)CSc2cc3c(ccn3C)cc21` [RIP1-009], for which the IC50 turned out to be 1.08e-09 M.

Turning to `CN1C(=O)[C@@H](NC(=O)c2cnn(Cc3ccccc3)c2)CSc2cc3c(ccn3C)cc21` [RIP1-010], the IC50 came out at 9.6e-08 M.

With `CN1C(=O)[C@@H](NC(=O)c2cccc(Cc3ccccc3)c2)CSc2cc3c(ccn3C)cc21` [RIP1-011], the IC50 came to 3.24e-07 M.

Regarding `CN1C(=O)[C@@H](NC(=O)c2ncn(Cc3ccccc3)n2)CSc2cc3c(ccn3C)cc21` [RIP1-012], the IC50 stood at 1.22e-09 M.

As to `CN1C(=O)[C@@H](NC(=O)c2n[nH]c(Cc3ccccc3)n2)CSc2cc3[nH]ncc3cc21` [RIP1-013], the IC50 turned out to be 5.3e-10 M.

`CN1C(=O)[C@@H](NC(=O)c2cnn(Cc3ccccc3)c2)CSc2cc3[nH]ncc3cc21` [RIP1-014]: the IC50 is 2.6e-08 M.

For `CN1C(=O)[C@@H](NC(=O)c2cn(Cc3ccccc3)cn2)CSc2cc3[nH]ncc3cc21` [RIP1-016], the IC50 came to 2.3e-10 M.

Take `CN1C(=O)[C@@H](NC(=O)c2cncn2Cc2ccccc2)CSc2cc3[nH]ncc3cc21` [RIP1-017]: the IC50 is above 2e-06 M.

Turning to `CC(=O)n1ncc2cc3c(cc21)SC[C@H](NC(=O)c1cc(Cc2ccccc2)on1)C(=O)N3C` [RIP1-018], the IC50 was found to be 2.7e-10 M.

In the case of `CN1C(=O)[C@@H](NC(=O)c2cn(Cc3ccccc3)nn2)CSc2cc3[nH]ncc3cc21` [RIP1-019], the IC50 worked out at 6.8e-10 M.

For the compound `CN1C(=O)[C@@H](NC(=O)c2ncn(Cc3ccccc3)n2)CSc2cc3[nH]ncc3cc21` [RIP1-020], the IC50 stood at 2.3e-10 M.

For `CN1C(=O)[C@@H](NC(=O)c2cn(Cc3ccccc3)cn2)COc2cc3[nH]ncc3cc21` [RIP1-022], the IC50 stood at 5.66e-10 M.

As for `CN1C(=O)[C@@H](NC(=O)c2nnc(Cc3ccccc3)[nH]2)COc2cc3[nH]ncc3cc21` [RIP1-023], the IC50 stood at 2.54e-09 M.

On to `CN1C(=O)[C@@H](NC(=O)c2cn(Cc3ccccc3)nn2)COc2cc3[nH]ncc3cc21` [RIP1-024], for which the IC50 was determined as 2.03e-09 M.

In the case of `CN1C(=O)[C@@H](NC(=O)c2ncn(Cc3ccccc3)n2)COc2cc3[nH]ncc3cc21` [RIP1-025], the IC50 worked out at 2.86e-10 M.

On to `CN1C(=O)[C@@H](NC(=O)c2ncn(Cc3ccccc3)n2)CSc2cc3[nH]nc(Cl)c3cc21` [RIP1-026], for which the IC50 stood at 2.8e-10 M.

`CN1C(=O)[C@@H](NC(=O)c2cn(Cc3ccccc3)cn2)CSc2cc3[nH]nc(Cl)c3cc21` [RIP1-028]: the IC50 was 7e-11 M.

As for `CN1C(=O)[C@@H](NC(=O)c2cc(Cc3ccccc3)on2)CSc2cc3[nH]nc(Cl)c3cc21` [RIP1-029], the IC50 is 1.2e-10 M.

`CN1C(=O)[C@@H](NC(=O)c2cn(Cc3ccccc3)cn2)CSc2cc3occc3cc21` [RIP1-036]: the IC50 was determined as 1.8e-10 M.

On to `CN1C(=O)[C@@H](NC(=O)c2ncn(Cc3ccccc3)n2)CSc2cc3occc3cc21` [RIP1-037], for which the IC50 was 1.29e-10 M.
